Experimental data published in patent publication US6825230B2, “Spiro and dispiro 1,2,4-trixolane antimalarials” (Medicines for Malaria Venture MMV, priority 2002, dated 2004).
Converted amounts (≈) assume the structure as drawn. Where two headings read alike, the source gives them in different places.

How the values were obtained:
[1] = tested on: chloroquine-sensitive NF54 strain of P. falciparum; test: In vitro antimalarial semiautomated microdilution assay ([3H]-hypoxanthine incorporation), NF54 strain; type: cell-based, Plasmodium falciparum; conditions: Plasmodium falciparum
Method in brief: (§1)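 IC50 comes from Logit regression of [3H]-hypoxanthine incorporation data. Intraerythrocytic P. falciparum taken from asynchronous stock cultures is exposed to OZ compounds in a semiautomated microdilution format.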

[2] = tested on: ANKA strain of P. berghei; test: Single dose STI in vivo screen in infected mice; design: species or system Plasmodium berghei; conditions: for Survival (days) 10 mg/kg po: single 10 mg/kg po in 3% ethanol and 7% Tween 80; for Survival (days) 10 mg/kg po / Survival (days) 10 mg/kg SSV po / Survival (days) 10 mg/kg sc: untreated 6-7 days; for Activity (%) 10 mg/kg po: single 10 mg/kg po in 3% ethanol and 7% Tween 80 on day 1 post-infection; for Survival (days) 10 mg/kg SSV po: single 10 mg/kg po in SSV; for Activity (%) 10 mg/kg SSV po: single 10 mg/kg po in standard suspending vehicle (SSV) on day 1 post-infection; for Survival (days) 10 mg/kg sc: single 10 mg/kg sc in 3% ethanol and 7% Tween 80; for Activity (%) 10 mg/kg sc: single 10 mg/kg sc in 3% ethanol and 7% Tween 80 on day 1 post-infection
[3] = tested on: chloroquine-resistant K1 strain of P. falciparum; test: In vitro antimalarial semiautomated microdilution assay ([3H]-hypoxanthine incorporation), K1 strain; type: cell-based, Plasmodium falciparum; conditions: Plasmodium falciparum
Method in brief: as §1

[4] = NF54, 72 h, read-out: IC50 (ng/ml) NF54, chloroquine-sensitive NF54 strain, 72 h incubation
[5] = percent reduction in parasitemia on day 3
[6] = K1, 72 h, read-out: IC50 (ng/ml) K1, chloroquine-resistant K1 strain, 72 h incubation
[7] = chloroquine-sensitive NF54 strain, 72 h incubation, read-out: IC50 (ng/ml) NF54
[8] = chloroquine-resistant K1 strain, 72 h incubation, read-out: IC50 (ng/ml) K1

| Structure (SMILES) | IC50 [1, 4] [ng/mL] | Survival (days) 10 mg/kg po [2] [days] | Activity (%) 10 mg/kg po [2, 5] | Survival (days) 10 mg/kg SSV po [2] [days] | Activity (%) 10 mg/kg SSV po [2, 5] | Survival (days) 10 mg/kg sc [2] [days] | Activity (%) 10 mg/kg sc [2, 5] | IC50 [3, 6] [ng/mL] | IC50 [1, 7] [ng/mL] | IC50 [3, 8] [ng/mL] | Survival (days) 3 mg/kg SSV po ([2]; single 3 mg/kg po in SSV) [days] | Activity (%) 3 mg/kg SSV po ([2]; single 3 mg/kg po in SSV, percent reduction in parasitemia on day 3) [%] |
| --- | --- | --- | --- | --- | --- | --- | --- | --- | --- | --- | --- | --- |
| CCCCCCCCS(=O)(=O)N1CCC2(CC1)OOC1(O2)C2CC3CC(C2)CC1C3 (centres unmarked) [OZ115, Adamantane-2-spiro-3′-8′-(1′-octanesulfonyl)-1′,2′,4′-trioxa-8′-azaspiro[4.5]decane] | 6.9 (≈ 15.6 nM) | 6.3 | 33% | 5.7 | 0% | 7.3 | 97% | 11 (≈ 24.9 nM) | – | – | – | – |
| CCOC(=O)CCC[C@H]1CC[C@]2(CC1)OOC1(O2)C2CC3CC(C2)CC1C3 (some centres unmarked) [OZ260] | – | 6.7 | 72% | 7.0 | 51% | 7.7 | 81% | – | 4.3 (≈ 11.4 nM) | 5.6 (≈ 14.8 nM) | – | – |
| O=C1c2ccccc2S(=O)(=O)N1C[C@H]1CC[C@]2(CC1)OOC1(O2)C2CC3CC(C2)CC1C3 (some centres unmarked) [OZ212] | – | 6.7 | 66% | 6.7 | 25% | 8.0 | 59% | – | 2.9 (≈ 6.31 nM) | 2.7 (≈ 5.88 nM) | – | – |
| NC(=O)N[C@H]1CC[C@]2(CC1)OOC1(O2)C2CC3CC(C2)CC1C3 (some centres unmarked) [OZ221] | – | 6.3 | 80% | 7.0 | 87% | 8.0 | 97% | – | > 10 | > 10 | – | – |
| O=C(C[C@H]1CC[C@]2(CC1)OO[C@]1(O2)C2CC3CC(C2)CC1C3)NCc1ccccn1 [OZ295] | – | – | – | 7.0 | 47% | – | – | – | 0.75 (≈ 1.82 nM) | 0.44 (≈ 1.07 nM) | 6.4 | 35 |
| CC1(C)CC(NC2CCC3(CC2)OOC2(O3)C3CC4CC(C3)CC2C4)CC(C)(C)N1 (centres unmarked) [OZ171] | 1.4 (≈ 3.34 nM) | 9.0 | 98% | 7.0 | 85% | 9.7 | 99.94% | 1.3 (≈ 3.11 nM) | – | – | – | – |
| CCOC(=O)c1ccc(OC[C@H]2CC[C@]3(CC2)OOC2(O3)C3CC4CC(C3)CC2C4)cc1 (some centres unmarked) [OZ166] | > 10 | 6.7 | 11% | 6.3 | 0% | 5.7 | 4% | 28 (≈ 63.3 nM) | – | – | – | – |
| O=C(OC1CCC2(CC1)OOC1(O2)C2CC3CC(C2)CC1C3)n1ccnc1 (centres unmarked) [OZ147, Adamantane-2-spiro-3′-1′,2′,4′-trioxaspiro[4.5]decane-8′-yl imidazole-1-carboxylate] | – | 8.0 | 85% | 8.0 | 71% | 19.7 | 99.89% | – | 1.8 (≈ 4.81 nM) | 1.1 (≈ 2.94 nM) | – | – |
| O=C1CNC(=O)N1C[C@H]1CC[C@]2(CC1)OOC1(O2)C2CC3CC(C2)CC1C3 (some centres unmarked) [OZ206] | 2.7 (≈ 7.17 nM) | 8.0 | 93% | 8.7 | 92% | 9.7 | 91% | 1 (≈ 2.66 nM) | – | – | – | – |
| COC(=O)c1ccc(C2(c3ccc(C(=O)OC)c(C(=O)OC)c3)OOC3(O2)C2CC4CC(C2)CC3C4)cc1C(=O)OC (centres unmarked) [OZ106, Adamantane-2-spiro-3′-5′,5′-bis[3′,4′-di(methoxycarbonyl)phenyl]-1′,2′,4′-trioxolane] | 1.7 (≈ 2.93 nM) | 5.3 | 0/0/0% | 5.0 | 0/0/0% | 5.3 | 0/0/0% | 2.2 (≈ 3.79 nM) | – | – | – | – |
| CC(C)(C)NC(=O)N[C@H]1CC[C@]2(CC1)OOC1(O2)C2CC3CC(C2)CC1C3 (some centres unmarked) [OZ222] | – | 7.7 | 87% | 7.0 | 75% | 10.0 | 99.76% | – | 6.3 (≈ 16.6 nM) | 3.9 (≈ 10.3 nM) | – | – |
| c1ccc2c(c1)OCCC21OOC2(O1)C1CC3CC(C1)CC2C3 (centres unmarked) [OZ134, Adamantane-2-spiro-3′-1′,2′,4′-trioxolane-5′-spiro-4″-2″, 3″-dihydro-4″H-1″-benzopyran] | 1.1 (≈ 3.5 nM) | 6.3 | 72% | 6.0 | 27% | 15.3 | 99.95% | 0.88 (≈ 2.8 nM) | – | – | – | – |
| O=C(O)c1ccccc1C(=O)N1CCC2(CC1)OOC1(O2)C2CC3CC(C2)CC1C3 (centres unmarked) [OZ132, Adamantane-2-spiro-3′-8′-(2′-carboxybenzoyl)-1′,2′,4′-trioxa-8′-azaspiro[4.5]decane] | > 10 | 6.3 | 38% | 5.7 | 0% | 6.3 | 40% | 9.8 (≈ 23.7 nM) | – | – | – | – |
| O=C(NO)[C@H]1CC[C@]2(CC1)OOC1(O2)C2CC3CC(C2)CC1C3 (some centres unmarked) [OZ116] | 3.3 (≈ 10.2 nM) | 7.7 | 97% | 8.3 | 96% | 8.0 | 96% | 4.2 (≈ 13 nM) | – | – | – | – |
| CN(C)S(=O)(=O)N1CCC2(CC1)OOC1(O2)C2CC3CC(C2)CC1C3 (centres unmarked) [OZ190, Adamantane-2-spiro-3′-8′-(dimethylaminosulfonyl)-1′,2′,4′-trioxa-8′-azaspiro[4.5]decane] | 1 (≈ 2.68 nM) | 8.7 | 98% | 7.7 | 78% | 5.7 | 2% | 0.16 (≈ 0.43 nM) | – | – | – | – |
| COC(=O)c1ccc(C2(c3ccccc3)OOC3(O2)C2CC4CC(C2)CC3C4)cc1 (centres unmarked) [OZ138, Adamantane-2-spiro-3′-5′-[4′-(methoxycarbonyl)phenyl]-5′-phenyl-1′,2′,4′-trioxolane] | 19 (≈ 46.7 nM) | 5.7 | 0% | 6.3 | 5% | 6.3 | 7% | 10 (≈ 24.6 nM) | – | – | – | – |
| CC(=O)OC[C@H]1CC[C@]2(CC1)OOC1(O2)C2CC3CC(C2)CC1C3 (some centres unmarked) [OZ118] | – | 7.0 | 99.0% | 8.0 | 98% | 8.3 | 99.57% | – | 0.24 (≈ 0.713 nM) | 1 (≈ 2.97 nM) | – | – |
